These results are taken from PMC9611471 (Pharmaceutics, 2022).

The target in data set [1] is T1, SK2 (Homo sapiens, UniProt Q9NRA0).
T1 sequence (Q9NRA0 1-654): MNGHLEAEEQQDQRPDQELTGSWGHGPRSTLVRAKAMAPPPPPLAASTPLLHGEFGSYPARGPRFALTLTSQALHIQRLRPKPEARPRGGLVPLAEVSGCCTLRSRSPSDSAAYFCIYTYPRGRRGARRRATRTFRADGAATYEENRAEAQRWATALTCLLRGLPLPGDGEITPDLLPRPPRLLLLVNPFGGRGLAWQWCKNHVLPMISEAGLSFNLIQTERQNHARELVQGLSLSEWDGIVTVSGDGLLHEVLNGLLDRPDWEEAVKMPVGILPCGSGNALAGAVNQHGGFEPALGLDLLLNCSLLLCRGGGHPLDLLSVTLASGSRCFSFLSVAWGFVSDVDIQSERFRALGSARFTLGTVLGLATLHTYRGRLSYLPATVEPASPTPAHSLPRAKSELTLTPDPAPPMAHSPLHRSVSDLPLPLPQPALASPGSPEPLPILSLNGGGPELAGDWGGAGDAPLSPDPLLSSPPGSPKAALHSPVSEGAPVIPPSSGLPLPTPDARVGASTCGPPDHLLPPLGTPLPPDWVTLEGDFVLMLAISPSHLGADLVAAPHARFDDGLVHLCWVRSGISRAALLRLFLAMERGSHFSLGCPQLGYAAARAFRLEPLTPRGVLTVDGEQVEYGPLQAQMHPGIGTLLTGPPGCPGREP
Description: SK2 activity assay (Adapta screening system). The conditions noted are these: read-out: SK2 inhibitory efficacy.

The nature of data set [2]: In vitro metabolic stability, human liver microsomes. The following applies: pooled liver microsomes 0.5 mg/mL, NADPH, 37 °C, 0 and 30 min. For orientation: Microsomes from liver hold many membrane-bound enzymes, among them those of drug oxidation.
The test system of data set [3] is A549 cells. Description: Mitochondrial membrane potential measurement (JC-10). Type of data set: cell-based, human. The conditions noted are these: 10 μM, 24 h. How it is done: To access the mechanism of cell death, Mitochondrial Membrane Potential (MMP) was performed using JC-10 cationic dye. […] Cells were collected, and 20 μM JC-10 dye prepared in HBSS solution (0.14 M NaCl, 0.005 M KCl, 0.001 M CaCl2, 0.005 M MgSO4-7H2O, 0.0004 M MgSO4-6H2O, 0.0003 M Na2HPO4-2H2O, 0.0004 M KH2PO4, 0.006 M D-glucose, 0.004 M NaHCO3, 0.002 M HEPES, and 0.02% Pluronic® F-127) was added to the cell for 30 min and mixed. The samples were protected from light and measured by using the MACS Quant Analyzer 10 Flow cytometer.

The nature of data set [4]: Serum analysis of tumor xenograft mice. The conditions noted are these: serum biochemical assays; 5 mg/kg i.p., 29 days. Type of data set: in vivo. Here is the method:
Five-week-old BALB/c-nu/nu male mice were purchased from Orient Bio Inc. (Seongnam, Gyeonggi-do, Korea). The mice were housed in a climate-controlled room (22 ± 2 °C, 50 ± 10% relative humidity) and specific pathogen-free conditions with a 12 h light/dark cycle and adapted for a week with free access to food and water. Cages, bedding, and drinking water were autoclaved and changed regularly. The cancer cell suspension {3 × 10^7 cells/ 150 μL phosphate-buffered saline (PBS)} was inoculated subcutaneously into the right flank. Measurable tumors were found 7–8 days after cell inoculation, and tumors grew in 90% of the injection site two weeks later. The mice were randomly divided into test groups (12 mice per group) when the tumor volume reached 100 mm^2 about two weeks after the inoculation (experimental day 0). The control group (vehicle-treated group) and Compound 4 (5 mg/kg) were administered i.p. 3 times a week. The formulation of Compound 4 was prepared in a mixture of 10% DMSO + 90% PBS. The tumor growth rate and body weights in each of the two groups were measured every three days using a Vernier caliper and a digital weighing balance, respectively. Tumor volume was calculated as l × b^2 × 0.52, where l is the length and b is the width. […]
Blood samples were centrifuged at 3000× g for 20 min, and levels of ALT, AST, ALP, sphingosine, ceramide, and S1P were measured using a kit.

Data set [5] deals with A549 cells. As to the kind of experiment: Colony formation assay. In kind it is cell-based, human. The following applies: 5 and 10 μM. How it is done:
A549 cells (1 × 10^3 cells/well) were seeded into six-well plates and then each compound was treated at 5 and 10 μM for 12 h. The medium was changed every two days, and the cells were cultured in a fresh medium for 10 days. The obtained colonies were fixed with 25% glutaraldehyde for 20 min and then stained with 0.1% crystal violet for 15 min.

A short description of data set [6]: In vitro metabolic stability, dog liver microsomes. In kind it is in vitro ADME. The conditions noted are these: pooled liver microsomes, NADPH, 37 °C, 0 and 30 min.
Data set [7] concerns A549 cells. As to the kind of experiment: Western blotting of apoptosis-related proteins. In kind it is cell-based, human. The conditions noted are these: 5 and 10 μM, 24 h. How it is done:
Western blotting measured changes in apoptosis-related proteins (PARP, BAX, BCL-2, Caspase-3). A549 cells (1 × 10^6 cells per well in 6-well plates) were incubated for 24 h. Cells were treated with concentrations of the compounds and incubated for 24 h. Then, cells were dissolved on ice for two hours with a lysis buffer containing a mixture of protease and phosphatase inhibitors. The lysate was centrifuged at 12,000× g for 15 min at 4 °C, and the supernatant was collected. Protein concentrations were measured using a bicinchoninic acid protein assay kit. Total protein was separated by 8–10% sodium dodecyl sulfate–polyacrylamide gel electrophoresis (SDS-PAGE) and transferred onto polyvinylidene fluoride (PVDF) membranes. After being blocked with 5% skim milk, membranes were probed overnight at 4 °C with primary antibodies against SK1, SK2, PARP, BAX, Bcl-2, Caspase-3, and β-actin. Then, the membranes were incubated with subsequent secondary antibodies at room temperature. Then, the protein expressions were measured by Amersham Imager 680 (GE Healthcare, Leiden, WZ, The Netherlands).
A general note: A western blot detects proteins with antibodies after separation by electrophoresis.

Data set [8] deals with A549 cells. As to the kind of experiment: Levels of sphingosine, ceramide and S1P (ELISA). The conditions noted are these: 5 and 10 μM. Type of data set: cell-based, human. How it is done: After seeding 1 × 10^6 cells/well into a 6-well plate and incubating for 24 h, the synthetic compounds were treated by concentration. Then, cells were collected and freezing and thawing were repeated three to five times, and centrifuged supernatant was used for testing. The levels of sphingosine, ceramide, and S1P were measured according to the proposed manual using each ELISA kit (Mybiosource, Inc., San Diego, CA, USA).
For orientation: ELISA stands for enzyme-linked immunosorbent assay.

The target in data set [9] is SK1 (Homo sapiens, UniProt Q9NYA1). Description: SK1 activity assay (Adapta screening system).
Chain of SK1 (Q9NYA1 whole entry): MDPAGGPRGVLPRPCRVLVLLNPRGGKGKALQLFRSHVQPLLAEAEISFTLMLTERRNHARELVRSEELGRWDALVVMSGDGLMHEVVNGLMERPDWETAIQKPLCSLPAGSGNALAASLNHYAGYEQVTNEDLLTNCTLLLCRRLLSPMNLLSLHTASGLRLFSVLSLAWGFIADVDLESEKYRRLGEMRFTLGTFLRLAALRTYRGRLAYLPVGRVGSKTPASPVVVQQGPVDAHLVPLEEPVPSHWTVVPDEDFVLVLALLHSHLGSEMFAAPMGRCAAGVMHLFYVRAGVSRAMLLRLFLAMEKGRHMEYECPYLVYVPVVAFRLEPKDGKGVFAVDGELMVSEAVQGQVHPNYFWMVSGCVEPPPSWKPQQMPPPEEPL
Data set [10] in a line: In vitro metabolic stability, mouse liver microsomes. In kind it is in vitro ADME. The following applies: pooled liver microsomes, NADPH, 37 °C, 0 and 30 min.

“Also recorded” adds a separate entry of the source.

As for `Cc1cc(CN(Cc2cc(C)cc(CS(=O)(=O)c3ccccc3)c2)c2ccc(CCN3CCC(CO)CC3)cc2)cc(CS(=O)(=O)c2ccccc2)c1` [Compound 4, (1-(4-(Bis(3-methyl-5-((phenylsulfonyl)methyl)benzyl)amino)phenethyl)piperidin-4-yl)methanol], the inhibition at 10 µM in data set [1] was 49%. The “MS HLM” value in [2] was 30.2. In addition, in data set [3], the “change in mitochondrial membrane potential (MMP), JC-10” value is listed as “significantly increased compared to that after treatment with PF-543”. Besides, the hepatotoxicity result in data set [4] is “does not appear to cause hepatotoxicity”. Besides, the colony formation entry in [5] is on record as “reduce colony formation in a concentration-dependent manner”. In addition, the “MS DLM” value in [6] worked out at 26.1. Further, the “levels of PARP, Caspase-3 and cleaved PARP” value in data set [7] was “levels of PARP and Caspase-3 were decreased and cleavage of PARP was increased”. For the same compound, in data set [8], the S1P levels result was “reduced; also recorded: inhibited S1P at a level similar to that of PF-543”, the ceramide levels entry is reported as “increased” and the sphingosine levels result was “slightly lower sphingosine expression than PF-543”. Besides, the “selectivity for SK1” value in [9] (SK1 vs SK2, compared to PF-543) is given as “lower selectivity for SK1 compared to PF-543”. Besides, the inhibition at 10 µM in data set [9] (read-out: SK1 inhibitory efficacy) is 31%. Besides, in data set [10], the “MS MLM” value is given as 38.5.
